Laboratory results taken from patent US11014908B2, “Chemical compounds” (Pfizer Inc., priority 2018, dated 2021).
pIC50, pKd: −log10 of the molar value.

Columns and labels:
[1] = molecular target: T1, purified sickle cell hemoglobin (HbS) (Homo sapiens, UniProt P68871+P69905, E7V); experiment: Binding affinity to purified HbS by Surface Plasmon Resonance (SPR); conditions: crosslinked biotinylated HbS, 1:1 binding model
T1 construct: HbS was obtained from the blood of homozygous S/S patients; from tissue; host or cells: red blood cells of homozygous S/S patients
Protocol: Binding Affinity, Kd (uM)
The binding affinity for compounds to purified sickle cell hemoglobin (HbS) was determined using Surface Plasmon Resonance (SPR). Patient Sickle Cell blood was obtained from Boston Children's Hospital in accordance with Institutional Review Board protocols. HbS was obtained from the blood of homozygous S/S patients, and purified using the method described in: Antonini and Brunori, Hemoglobin and Myoglobin in their Reactions with Ligands. Amsterdam, London, North-Holland Publishing Company, 1971. Whole blood was separated into red blood cell and plasma components by centrifugation, after which the plasma was decanted and discarded. Packed red blood cells were washed with normal saline (0.9% NaCl) and then lysed by 2:1 dilution with cold deionized water. The hemolysate was centrifuged to remove cellular debris, and further purified with the addition of Drabkin's Buffer (2.8 M potassium phosphate), and centrifugation with Celite®. Organic phosphates (2,3-BPG) were removed via gel filtration with Sephadex® G-25. HbS and wild-type hemoglobin, hemoglobin A (HbA), were separated by […], using diethylaminoethyl (DEAE)-Sepharose® fast flow, and eluted using a pH gradient from pH 8.5-pH 7.5. Purity of the resulting HbS and HbA was determined by native gel electrophoresis and HbS fractions used further.
To stabilize the tetrameric structure of hemoglobin, HbS was crosslinked between the beta subunits (Lys82-Lys82) using bis(3,5-dibromosalicyl) fumarate, as described in: Shibayama N. et al, J Am Chem Soc 2014, 136, 13, 5097-5105 and Shibayama N. et al, Biochemistry 1991, 39, 33, 8158-8165). Crosslinked HbS was subsequently biotynylated and captured on a custom made Streptavidin sensor to achieve protein density of 4000 to 5000 resonance units (RUs) on the surface. Compound binding to HbS using SPR was tested on Sierra Sensors MASS-1 instrument. The running buffer contained 100 mM Potassium Phosphate, pH 7.5, 0.005% Tween-20, 1 mM ethylenediaminetetraacetic acid (EDTA), 0.1 mg/mL bovine serum albumin with 1% DMSO. Compound samples were injected at a flow rate of 30 μL/min for 2 minutes association and at least 5 minutes of dissociation time. A 2- or 3-fold dilution series containing at least 4 concentrations were tested for each compound. The dose range was selected based on the activity of the compounds in biochemical assays, when available. Multiple blank injections of running buffer were run before and after each compound series to allow blank subtraction for compound data in the analysis software. Positive controls were run in each experiment to monitor and maintain the activity of HbS on the surface. A DMSO curve was run at the beginning of each data set to apply an excluded volume correction to the data during analysis. The data were processed and analyzed using Sierra Sensors and Scrubber 2.0 software. The binding affinities (dissociation constant Kd) were calculated by fitting the sensorgrams to a 1:1 binding model.

HbS = molecular target: T2, HbS (Homo sapiens, UniProt P68871+P69905, E7V); experiment: 'R'-'T' assay (conversion of oxy HbS to deoxy HbS under deoxygenating conditions); format: biochemical; conditions: 50% inhibition of HbS 'R'-'T' conversion; 3 uM HbS, <1% O2
T2 construct: HbS was obtained from the blood of homozygous S/S patients; from tissue; host or cells: red blood cells of homozygous S/S patients
Protocol: Conversion from oxy (R, relaxed state) to deoxy (T, tense state) HbS in the presence of compound was performed to determine the ability of compounds to stabilize the oxy (R) state under deoxygenating conditions. The assay run was similar to the ‘Oxygen dissociation assay’ described in Oksenberg et al, Br J Haematology, 2016, 175, 141-153.
Assay ready compound plates were prepared by first preparing a master serial dilution plate from a 30 mM initial compound stock in 100% DMSO. From this master serial dilution plate, 167 nL of the desired compound concentration was delivered to the assay ready plates using acoustical dispensing. Plates were frozen at −20° C. until needed. Purified HbS-O2 (i.e. oxy HbS) was diluted to 3 uM in 100 mM potassium phosphate buffer, pH=7.4. 50 uL of 3 uM stock solution was added to each well of the assay ready plate and mechanically mixed eight times. Following mixing the plates were covered and incubated at room temperature for one hour with moderate shaking. Following incubation, the plates were placed in a deoxygenated environment (<1% O2) for two hours, and the conversion to deoxy HbS monitored as a function of time. Oxygenated and deoxygenated forms of hemoglobin were detected using the absorbance of the Soret peaks at 415 and 430 nm respectively, and absorbance measurements (optical density, OD) were taken at 0, 90 and 120 minutes. Background absorbance for correction was collected at 700 nm.
Data were analyzed by first subtracting baseline absorbance at 700 nm from 415 nm and 430 nm data at each timepoint, and then taking the ratio of 415/430 nm data (Ratio=[(OD415−OD700)/(OD430−OD700)]. The effect at each timepoint was calculated using the ratios from the previous calculation at time 0 and each time point of interest (Effect^time x=Ratio^time x/Ratio^time 0). Percent effect was calculated by comparing the effects of compound versus HbS only with the effects observed by the positive control compound tucaresol (percent effect=[(effect^time x compound−effect^time x HbS)/(effect^time x tucaresol−effect^time x HbS)]×100). Data were reported as the percent effect for a single point. Calculations to determine the concentration of compound for 50% inhibition (IC50 (uM)) of the HbS ‘R’-‘T’ conversion were based on the percent effect at varying compound concentration.

Row | Compound | pKd [1] | pIC50 (HbS)
1 | C[C@H](Oc1cc2cc(F)c(Cl)cc2nc1N)c1ncc(F)cc1-n1cccn1 [Example 31, 7-chloro-6-fluoro-3-{(1S)-1-[5-fluoro-3-(1H-pyrazol-1-yl)pyridin-2-yl]ethoxy}quinolin-2-amine] | 7.16 | 5.30
2 | C[C@H](Oc1cc2ncc(F)cc2nc1N)c1nc(O)ccc1-n1cccn1 [Example 48, 6-{(1S)-1-[(2-amino-7-fluoro-1,5-naphthyridin-3-yl)oxy]ethyl}-5-(1H-pyrazol-1-yl)pyridin-2-ol] | 6.60 | 5.33
3 | COc1ccc(-n2cccn2)c([C@H](C)Oc2cc3cc(F)ccc3nc2N)n1 [Example 57, 6-fluoro-3-{(1S)-1-[6-methoxy-3-(1H-pyrazol-1-yl)pyridin-2-yl]ethoxy}quinolin-2-amine] | 6.74 | 5.32
4 | C[C@H](Oc1cc2cc(F)ccc2nc1N)c1nc(OCC(=O)O)ccc1-n1cccn1 [Example 40, {[6-{(1S)-1-[(2-amino-6-fluoroquinolin-3-yl)oxy]ethyl}-5-(1H-pyrazol-1-yl)pyridin-2-yl]oxy}acetic Acid] | 6.79 | 5.28
5 | C[C@H](Oc1cc2cc(F)ccc2nc1N)c1cc2[nH]cnc2cc1-n1cccn1 [Example 63, 6-fluoro-3-{(1S)-1-[5-(1H-pyrazol-1-yl)-1H-benzimidazol-6-yl]ethoxy}quinolin-2-amine] | 6.82 | 5.08
6 | C[C@H](Oc1cc2cc(F)ccc2nc1N)c1cc(C(=O)N[C@H]2C[C@H](O)C2)ccc1-n1cccn1 [Example 14, 3-{(1S)-1-[(2-amino-6-fluoroquinolin-3-yl)oxy]ethyl}-N-(trans-3-hydroxycyclobutyl)-4-(1H-pyrazol-1-yl)benzamide] | 7.39 | 5.37
7 | C[C@H](Oc1cc2cc(F)ccc2nc1N)c1cc(CC(=O)O)ccc1-n1cccn1 (single isomer, unassigned) [Example 8] | 6.57 | 5.14
8 | C[C@H](Oc1cc2cc(F)cc(F)c2nc1N)c1[nH]c(=O)ccc1-n1cccn1 [Example 53, 6-{(1S)-1-[(2-amino-6,8-difluoroquinolin-3-yl)oxy]ethyl}-5-(1H-pyrazol-1-yl)pyridin-2-ol] | 7.80 | 5.37
9 | C[C@H](Oc1cc2cc(Br)ccc2nc1N)c1ncccc1-n1cccn1 [Example 28, 6-bromo-3-{(1S)-1-[3-(1H-pyrazol-1-yl)pyridin-2-yl]ethoxy}quinolin-2-amine] | 6.80 | 5.18
10 | C[C@H](Oc1cc2ncccc2nc1N)c1nc(O)ccc1-n1cccn1 [Example 47, 6-{(1S)-1-[(2-amino-1,5-naphthyridin-3-yl)oxy]ethyl}-5-(1H-pyrazol-1-yl)pyridin-2-ol] | 6.42 | 5.20
11 | COCCNC(=O)c1ccc(-n2cccn2)c([C@H](C)Oc2cc3cc(F)ccc3nc2N)c1 [Example 11, 3-{(1S)-1-[(2-amino-6-fluoroquinolin-3-yl)oxy]ethyl}-N-(2-methoxyethyl)-4-(1H-pyrazol-1-yl)benzamide] | 7.21 | 5.36
12 | C[C@H](Oc1cc2cc(F)ccc2nc1N)c1nc(OCCO)ccc1-n1cccn1 [Example 41, 2-{[6-{(1S)-1-[(2-amino-6-fluoroquinolin-3-yl)oxy]ethyl}-5-(1H-pyrazol-1-yl)pyridin-2-yl]oxy}ethanol] | 7.36 | 5.42
13 | C[C@H](Oc1cc2cc([C@@H](C)O)ccc2nc1N)c1nc(O)ccc1-n1cccn1 [Example 51, 6-[(1S)-1-({2-amino-6-[(1R)-1-hydroxyethyl]quinolin-3-yl}oxy)ethyl]-5-(1H-pyrazol-1-yl)pyridin-2-ol] | 5.16 | 4.28
14 | C[C@H](Oc1cc2cc(F)ccc2nc1N)c1cc(-c2n[nH]c(=O)o2)ccc1-n1cccn1 [Example 5, 5-[3-{(1S)-1-[(2-amino-6-fluoroquinolin-3-yl)oxy]ethyl}-4-(1H-pyrazol-1-yl)phenyl]-1,3,4-oxadiazol-2(3H)-one] | 7.85 | 5.36
15 | C[C@H](Oc1cc2cc(Br)ccc2nc1N)c1cc(C(N)=O)ccc1-n1cccn1 (single isomer, unassigned) [Example 3] | 7.17 | 5.30
16 | C[C@H](Oc1cc2cc(F)ccc2nc1N)c1cc(C(N)=O)c(F)cc1-n1cccn1 [Example 1, 5-{(1S)-1-[(2-amino-6-fluoroquinolin-3-yl)oxy]ethyl}-2-fluoro-4-(1H-pyrazol-1-yl)benzamide] | 7.70 | 5.35
17 | C[C@H](Oc1cc2cc(C(N)=O)ccc2nc1N)c1ncccc1-n1cccn1 [Example 30, 2-amino-3-{(1S)-1-[3-(1H-pyrazol-1-yl)pyridin-2-yl]ethoxy}quinoline-6-carboxamide] | 5.82 | 5.20
18 | C[C@H](Oc1cc2cc(F)ccc2nc1N)c1cc(OCC(=O)O)ccc1-n1cccn1 [Example 15, [3-{(1S)-1-[(2-amino-6-fluoroquinolin-3-yl)oxy]ethyl}-4-(1H-pyrazol-1-yl)phenoxy]acetic Acid] | 7.20 | 5.41
19 | C[C@H](Oc1cc2cc(F)ccc2nc1N)c1cc(CCC(=O)O)ccc1-n1cccn1 [Example 16, 3-[3-{(1S)-1-[(2-amino-6-fluoroquinolin-3-yl)oxy]ethyl}-4-(1H-pyrazol-1-yl)phenyl]propanoic Acid] | 6.73 | 5.44
20 | Cc1ccc2nc(N)c(O[C@@H](C)c3nc(O)ccc3-n3cccn3)cc2n1 [Example 54, 6-{(1S)-1-[(2-amino-6-methyl-1,5-naphthyridin-3-yl)oxy]ethyl}-5-(1H-pyrazol-1-yl)pyridin-2-ol] | 6.05 | 4.95
21 | C[C@H](Oc1cc2cc(F)c(Cl)cc2nc1N)c1cc(C(N)=O)c(F)cc1-n1cccn1 [Example 2, 5-{(1S)-1-[(2-amino-7-chloro-6-fluoroquinolin-3-yl)oxy]ethyl}-2-fluoro-4-(1H-pyrazol-1-yl)benzamide] | 7.68 | 5.17
22 | Cc1cc2nc(N)c(O[C@@H](C)c3nc4c(cnn4CCO)cc3-n3cccn3)cc2cn1 [Example 77, 2-[6-{(1S)-1-[(2-amino-7-methyl-1,6-naphthyridin-3-yl)oxy]ethyl}-5-(1H-pyrazol-1-yl)-1H-pyrazolo[3,4-b]pyridin-1-yl]ethanol] | 6.71 | 5.20
23 | C[C@H](Oc1cc2cc(C(C)(C)O)ccc2nc1N)c1nc(O)ccc1-n1cccn1 [Example 50, 6-[(1S)-1-{[2-amino-6-(2-hydroxypropan-2-yl)quinolin-3-yl]oxy}ethyl]-5-(1H-pyrazol-1-yl)pyridin-2-ol] | 5.87 | 4.00
24 | C[C@H](Oc1cc2cc(C(N)=O)ccc2nc1N)c1cc2c(cnn2CCO)cc1-n1cccn1 (single isomer, unassigned) [Example 74] | 7.23 | 5.37
